How the values were obtained:
MCF7 [1] = assay: Antiproliferative activity against human MCF-7 cells assessed as inhibition of cell proliferation incubated for 72 hrs by MTT assay; format: functional, cell-based; details: MCF7, 72 h
MDA-MB-231 = assay: Antiproliferative activity against human MDA-MB-231 cells assessed as inhibition of cell proliferation incubated for 72 hrs by MTT assay; format: functional, cell-based; details: MDA-MB-231, 72 h
MCF7 [2] = assay: Anticancer activity against human MCF7 cells assessed as inhibition of colony formation at 2 to 10 uM measured after 48 hrs by crystal violet staining based assay; format: functional, cell-based; details: dose 2-10 µM, DDE = dose-dependent effect
4T1 [3] = assay: Anticancer activity against mouse 4T1 cells assessed as inhibition of cell proliferation measured after 72 hrs by MTT assay; format: functional, cell-based; details: 4T1, 72 h
MDA-MB-468 = assay: Anticancer activity against human MDA-MB-468 cells assessed as inhibition of cell proliferation measured after 72 hrs by MTT assay; format: functional, cell-based; details: MDA-MB-468, 72 h
4T1 [4] = assay: Antitumor activity against female BALB/c mouse xenografted with 4T1 cells assessed as tumor growth inhibition at 60 mg/kg, ip administered daily for 12 days relative to control; format: functional; details: 4T1, 288 h, time 12 day, read-out: TGI

| SMILES | IC50 (MCF7 [1]) | IC50 (MDA-MB-231) | IC50 (4T1 [3]) | IC50 (MDA-MB-468) | Activity (MCF7 [2]) | inhibition in vivo at 60 mg/kg (4T1 [4]) |
| --- | --- | --- | --- | --- | --- | --- |
| COc1c(C)cnc(Cn2cc(C#CCOCCOCCOCCOCCOCCOCCNc3cccc4c3C(=O)N(C3CCC(=O)NC3=O)C4=O)c3c(Cl)nc(N)nc32)c1C (stereo unspecified) | 3.14 µM | 3.88 µM |  |  |  |  |
| COc1cc(C(=O)NCCCCC#Cc2cn(Cc3ncc(C)c(OC)c3C)c3nc(N)nc(Cl)c23)ccc1NC(=O)[C@@H]1N[C@@H](CC(C)(C)C)[C@](C#N)(c2ccc(Cl)cc2F)[C@H]1c1cccc(Cl)c1F | > 100 µM | > 100 µM |  |  |  |  |
| COc1c(C)cnc(Cn2cc(C#CCCCCNc3cccc4c3C(=O)N(C3CCC(=O)NC3=O)C4=O)c3c(Cl)nc(N)nc32)c1C (stereo unspecified) | 0.25 µM | 2.2 µM |  |  |  |  |
| COc1c(C)cnc(Cn2cnc3c(Cl)nc(N)nc32)c1C [BIIB021] | 1.12 µM | 7.72 µM | 0.55 µM | 2.52 µM | Dde | 31.8% |
| COc1c(C)cnc(Cn2cc(C#CCNc3cccc4c3C(=O)N(C3CCC(=O)NC3=O)C4=O)c3c(Cl)nc(N)nc32)c1C (stereo unspecified) | 1.98 µM | 20.6 µM |  |  |  |  |
| COc1c(C)cnc(Cn2cc(C#CCOCCOCCOCCOCCNc3cccc4c3C(=O)N(C3CCC(=O)NC3=O)C4=O)c3c(Cl)nc(N)nc32)c1C (stereo unspecified) | 6.12 µM | 9.48 µM |  |  |  |  |
| Nc1cccc2c1C(=O)N(C1CCC(=O)NC1=O)C2=O (stereo unspecified) [POMALIDOMIDE] | > 100 µM | > 100 µM |  |  |  |  |

The next lines start with results.

| IC50 (MCF7 [1]) | IC50 (MDA-MB-231) | IC50 (4T1 [3]) | IC50 (MDA-MB-468) | SMILES | Activity (MCF7 [2]) | inhibition in vivo at 60 mg/kg (4T1 [4]) |
| --- | --- | --- | --- | --- | --- | --- |
| 97.3 µM | > 100 µM |  |  | COc1cc(C(=O)NCCCC#Cc2cn(Cc3ncc(C)c(OC)c3C)c3nc(N)nc(Cl)c23)ccc1NC(=O)[C@@H]1N[C@@H](CC(C)(C)C)[C@](C#N)(c2ccc(Cl)cc2F)[C@H]1c1cccc(Cl)c1F |  |  |
| 71.7 µM | 65.9 µM |  |  | COc1cc(C(=O)NCCOCC#Cc2cn(Cc3ncc(C)c(OC)c3C)c3nc(N)nc(Cl)c23)ccc1NC(=O)[C@@H]1N[C@@H](CC(C)(C)C)[C@](C#N)(c2ccc(Cl)cc2F)[C@H]1c1cccc(Cl)c1F |  |  |
| > 100 µM | > 100 µM |  |  | COc1cc(C(=O)NCCOCCOCCOCCOCCOCC#Cc2cn(Cc3ncc(C)c(OC)c3C)c3nc(N)nc(Cl)c23)ccc1NC(=O)[C@@H]1N[C@@H](CC(C)(C)C)[C@](C#N)(c2ccc(Cl)cc2F)[C@H]1c1cccc(Cl)c1F |  |  |
| > 100 µM | > 100 µM |  |  | COc1cc(C(=O)NCCOCCOCCOCC#Cc2cn(Cc3ncc(C)c(OC)c3C)c3nc(N)nc(Cl)c23)ccc1NC(=O)[C@@H]1N[C@@H](CC(C)(C)C)[C@](C#N)(c2ccc(Cl)cc2F)[C@H]1c1cccc(Cl)c1F |  |  |

— ChEMBL document CHEMBL5154662, “Discovery of BP3 as an efficacious proteolysis targeting chimera (PROTAC) degrader of HSP90 for treating breast cancer” (Eur J Med Chem, 2022)
